# Source: patent publication US8680095B2, “Heterocycle compounds and uses thereof for the prevention or treatment of diseases involving formation of amyloid plaques and/or where a dysfunction of the APP metabolism occurs” (Institut National de la Sante et de la Recherche Medicale …, priority 2009, dated 2014)
# Like-named read-outs stand apart in the source and are kept apart here.
# Legend:
# [1] = test system: APP-CTFs (CTFα, AICD) in SKNSH-SY5Y APPwt cells; assay: Western blotting of APP carboxy-terminal fragments (CTFα, AICD) in treated cells; type: cell-based; settings: Homo sapiens, 24 h
# Method: (§1) The human neuroblastoma cell line SKNSH-SY5Y APP^wt is cultured in Dulbecco's modified Eagle medium (Invitrogen) supplemented with 10% fetal calf serum (PAA), 2 mM L-glutamine (Invitrogen), 1 mM non-essential amino acids (Invitrogen), 50 units/ml penicillin/streptomycin (Invitrogen) and 200 μg geneticin (G418; Invitrogen) (selection for cell expressing APP) in a 5% CO2 humidified incubator at 37° C. Cells are seeded into 96-wells plates (20000 cells/well) for cytotoxicity assay and 12-wells plate (300000 cells/well) for western blotting for 18 h.
# (§2) For western blotting, cells are incubated with 700 μl/well of each product at 10; 3; 1 and 0.31 μM in a 5% CO2 incubator at 37° C. for 24 h. The following day, culture medium samples are collected for ELISA assay and stored at −80° C. Cells are rinsed very slowly with cold PBS, snap-frozen on dry ice and immediately stored at −80° C.
# Cells in twelve-well plates are collected in 50 μl Laemmli Lysis Buffer (pH 6.8, 50 mM Tris Base, 2% SDS, 20% Glycerol, 1 mM sodium pyrophosphate, 1 mM sodium orthovanadate and Protease Inhibitor Cocktail Complete Mini-Roche) per well. Cells are scrapped and lysates sonicated for 5 min.
# Protein content is determined using the BCA Method (Pierce). Samples containing equal amounts of protein (35 μg total protein for mice and 20 μg total protein for cells per well) are heated at 85° C. for 2 min after thawing and electrophoresed for 2.45 h at 125 V in a 16% Tricine precast gels according to the protocol supplied with the NuPAGE system (Invitrogen). After size fractionation, the proteins are transferred onto nitrocellulose 0.2 μm pore-size membranes (Invitrogen) in the blot module of the NuPAGE sytem for 1 h at room temperature (RT). Blots are blocked for 1 h in TNT with 0.05% Tween 20 and 5% nonfat milk at RT, incubated overnight at 4° C. with anti-C term APP C1:3-2429 (1:250000) primary antibody and washed four times with TNT before being exposed to peroxidase labeled anti-mouse IgG (H+L) C4 94010 (1:50000; Vector) secondary antibody for […] at 25° C. The immunoreactions are detected with SuperSignal West Pico Chemiluminescent Substrate (Thermo specific, 34077). Images are scanned with LAS-3000 Image System (Global FUJIFILM) and bands quantified by ImageJ 1.37v computer program. The different APP-CTF bands are detected as a function of their molecular mass, as described in Vingtdeux, V., Hamdane, M., Gompel, M. et al. (2005) Phosphorylation of amyloid precursor carboxy-terminal fragments enhances their processing by a gamma-secretase-dependent mechanism. Neurobiol Dis, 20, 625-637. Graphs and statistical analysis of results is performed with Graph Pad Prism (version 4.02) computer program.
# β-amyloid 1-42 = assay: Innotest β-amyloid 1-42 ELISA on SY5Y culture medium; type: cell-based; settings: Homo sapiens, 24 h, compared to a control with a value of 100, read-out: Aβ 1 μM*
# Method: as §1, §2
# The β-amyloid 1-42 rate is quantified in SY5Y cells-culture medium by using the Innotest β-amyloid 1-42 (80324 Innogenetics®) according to the manufacturer instructions. Briefly, Fresh culture medium is used to dilute the standard. Culture samples are centrifuged at 200 g at 4° C. during 5 minutes in order to eliminate cell fragments.
# First, 75 μl of the conjugate working solution1 (3D6 biotinylated antibody) is added to a 21F12 Ab precoated well. Twenty five μl of pure supernatant samples are then added to the coated well, and incubated for 1 h. Then the plate is washed 5 times with the washing buffer. Then 100 μl of peroxidase-labeled streptavidin (conjugate working solution 2) is added and incubated for 30 min at RT. After washing the plate 5 times, 100 μl of tetramethyl benzidine (substrate working solution) is added onto the plate and incubated for 30 minutes in the dark. The reaction is stopped with 50 μl 0.9N sulfuric acid (stop solution). The absorbance is read at 450 nm.
# A sigmoidal curve fitting (four parameter […] curve) is used to calculate the standard curve. The corresponding concentration of β-amyloid (1-42) in pg/ml is determined from the standard curve. Results are expressed in concentration of β-amyloid in pg per μg of total proteins. Graphs and statistic analyses (t Test) are performed with Graph Pad Prism computer program (V0.5).
# APP-CTFα = assay: In vivo mice treatment, western blotting of APP-CTFs in prefrontal cortex; settings: C57Bl6 female mice, 12.5, 25, 50 mg/kg intraperitoneally once, prefrontal cortex 24 h after, versus vehicle
# Method: Test molecules are intraperitoneally injected to 4 month old C57BI6 females mice either at 12.5; 25; 50 mg/kg or vehicule once, and sacrificed 24 h after by decapitation. Brain is immediately removed and Prefrontal Cortex is dissected by using a cold zinc brain matrix. The total dissection time was <3 min from decapitation. Following dissection tissue is frozen in dry ice and then stored at −80° C. for western blotting.
# Protein extracts of Prefrontal Cortex samples are prepared in 50 μl Laemmli Lysis Buffer (pH 6.8, 50 mM Tris Base, 2% SDS, 20% Glycerol, 1 mM sodium pyrophosphate, 1 mM sodium orthovanadate and Protease Inhibitor Cocktail Complete Mini-Roche) by trituration of the fragments in a 0.2 ml glass micro tissue grinder. […]
# Protein content is determined using the BCA Method (Pierce). […] The immunoreactions are detected with SuperSignal West Pico Chemiluminescent Substrate (Thermo specific, 34077). Images are scanned with LAS-3000 Image System (Global FUJIFILM) and bands quantified by ImageJ 1.37v computer program. The different APP-CTF bands are detected as a function of their molecular mass, as described in Vingtdeux, V., Hamdane, M., Gompel, M. et al. (2005) Phosphorylation of amyloid precursor carboxy-terminal fragments enhances their processing by a gamma-secretase-dependent mechanism. […]
# [2] = Cytotoxicity CC50 on MRC-5; type: cell-based; settings: human, MRC-5 cells
# [3] = compared to a control with a value of 100, read-out: CTFα 1 μM*
# [4] = AICD, compared to a control with a value of 100, read-out: AlCD 1 μM*
SMILES,melting point [°C],"activity at 1 µM [1, 3] [%]","activity at 1 µM [1, 4] [%]",activity at 1 µM (β-amyloid 1-42) [%],"production of APP-CTFα (optical density, FIG. 1) (APP-CTFα)",CC50 [2] [µM]
"Clc1ccc2c(Nc3ccc(N4CCOCC4)c(CN4CCCC4)c3)ccnc2c1 [compound 86, 7-chloro-N-[4-(morpholin-4-yl)-3-(pyrrolidin-1-ylmethyl)phenyl]quinolin-4-amine]",187 to 188,–,–,–,–,–
"CN1CCN(c2ccc(Nc3ccnc4cc(Cl)ccc34)cc2CNC(C)(C)C)CC1 [compound 56, N-{3-[(tert-butylamino)methyl]-4-(4-methylpiperazin-1-yl)phenyl}-7-chloroquinolin-4-amine]",–,183,823,45,–,–
"CN1CCN(c2cc(Nc3ccnc4cc(Cl)ccc34)cc(N3CCN(C)CC3)c2)CC1 [compound 70, N-[3,5-bis(4-methylpiperazin-1-yl)phenyl]-7-chloroquinolin-4-amine]",–,687,515,–,–,–
"CN(C)CCCN1CCN(C(=O)c2cc(Nc3ccnc4cc(Cl)ccc34)cc(C(=O)N3CCN(CCCN(C)C)CC3)c2)CC1 [compound 64, N-[3,5-Bis({4-[3-(dimethylamino)propyl]piperazin-1-yl}carbonyl)phenyl]-7-chloroquinolin-4-amine]",–,106,669,31,–,–
"N#Cc1cc(NCCN2CCCCC2)cc(Nc2ccnc3cc(Cl)ccc23)c1 [compound 77, 3-[(7-chloroquinolin-4-yl)amino]-5-{[2-(piperidin-1-yl)ethyl]amino}benzonitrile]",–,–,618,85,–,–
"N#Cc1cc(/N=c2\ccn(CCN3CCCCC3)c3cc(Cl)ccc23)cc(NCCN2CCCCC2)c1 [compound 76, 3-({7-Chloro-1-[2-(piperidin-1-yl)ethyl]-1,4-dihydroquinolin-4-ylidene}amino)-5-{[2-(piperidin-1-yl)ethyl]amino}benzonitrile]",–,–,–,76,–,–
"CN1CCN(c2cc(O)cc(Nc3ccnc4cc(Cl)ccc34)c2)CC1 [compound 72, 3-[(7-chloroquinolin-4-yl)amino]-5-(4-methyl-piperazin-1-yl)phenol]",–,105,80,100,–,–
"N#Cc1cc(N)cc(Nc2cc[n+](CCN3CCCCC3)c3cc(Cl)ccc23)c1 [compound 74, 4-[(3-amino-5-cyanophenyl)amino]-7-chloro-1-[2-(piperidin-1-yl)ethyl]quinolin-1-ium chloride]",–,–,–,44,–,–
"CN1CCN(c2ccc(Nc3ccnc4cc(Cl)ccc34)cc2CN2CCOCC2)CC1 [compound 57, 7-chloro-N-[4-(4-methylpiperazin-1-yl)-3-(morpholin-4-ylmethyl)phenyl]quinolin-4-amine]",–,194,757,19,–,–
"Oc1c(CN2CCCC2)cc(Nc2ccnc3cc(Cl)ccc23)cc1CN1CCCC1 [compound 66, 4-[(7-Chloroquinolin-4-yl)amino]-2,6-bis (pyrrolidin-1-ylmethyl)phenol]",–,754,886,19,increases the production of APP-CTFα,–
"COC(=O)c1cc(Nc2ccnc3cc(Cl)ccc23)cc(C(=O)N2CCN(CCCN(C)C)CC2)c1 [compound 69, Methyl 3-[(7-chloroquinolin-4-yl)amino]-5-({4-[3-(dimethylamino)propyl]piperazin-1-yl}carbonyl)benzoate]",–,126,302,46,–,–
"Cc1cc(Nc2ccnc3cc(Cl)ccc23)cc(CN2CCCC2)c1N1CCN(C)CC1 [compound 59, 7-Chloro-N-[3-methyl-4-(4-methylpiperazin-1-yl)-5-(pyrrolidin-1-ylmethyl)phenyl]quinolin-4-amine]",–,629,325,73,–,–
"CCN(CC)Cc1cc(Nc2ccnc3cc(Cl)ccc23)ccc1F [compound 84, 7-chloro-N-(3-((diethylamino)methyl)-4-fluorophenyl)quinolin-4-amine]",–,358,209,–,–,< 10
